Experimental data as given in ChEMBL document CHEMBL6083273, “Targeting Periplakin of Novel Benzenesulfonamides as Highly Selective Agonists for the Treatment of Vitiligo” (2024).
Calls of active or inactive are those of the source. The rule behind the calls is not given here.

Legend:
[1] = species: Danio rerio; experiment: Effect on tryptophan metabolism in zebrafish embryo assessed as IAN metabolite level at 10 uM by LC/MS analysis; assay type: functional
[2] = species: Danio rerio; experiment: Effect on tryptophan metabolism in zebrafish embryo assessed as IPA metabolite level at 10 uM by LC/MS analysis; assay type: functional
[3] = species: Danio rerio; experiment: Effect on tryptophan metabolism in zebrafish embryo assessed as 3-HK metabolite level at 10 uM by LC/MS analysis; assay type: functional
[4] = species: Danio rerio; experiment: Effect on tryptophan metabolism in zebrafish embryo assessed as ILA metabolite level at 10 uM by LC/MS analysis; assay type: functional
[5] = species: Danio rerio; experiment: Effect on tryptophan metabolism in zebrafish embryo assessed as IA metabolite level at 10 uM by LC/MS analysis; assay type: functional
[6] = species: Danio rerio; experiment: Effect on tryptophan metabolism in zebrafish embryo assessed as ICA metabolite level at 10 uM by LC/MS analysis; assay type: functional
[7] = species: Danio rerio; experiment: Effect on tryptophan metabolism in zebrafish embryo assessed as 5-HTP metabolite level at 10 uM by LC/MS analysis; assay type: functional
[8] = species: Danio rerio; experiment: Effect on tryptophan metabolism in zebrafish embryo assessed as LE metabolite level at 10 uM by LC/MS analysis; assay type: functional
[9] = species: Danio rerio; experiment: Effect on tryptophan metabolism in zebrafish embryo assessed as 5-HIAA metabolite level at 10 uM by LC/MS analysis; assay type: functional
[10] = species: Danio rerio; experiment: Effect on tryptophan metabolism in zebrafish embryo assessed as IGA metabolite level at 10 uM by LC/MS analysis; assay type: functional
[11] = species: Danio rerio; experiment: Effect on tryptophan metabolism in zebrafish embryo assessed as NA metabolite level at 10 uM by LC/MS analysis; assay type: functional
[12] = species: Danio rerio; experiment: Effect on tryptophan metabolism in zebrafish embryo assessed as IAA metabolite level at 10 uM by LC/MS analysis; assay type: functional
[13] = species: Danio rerio; experiment: Effect on tryptophan metabolism in zebrafish embryo assessed as indican metabolite level at 10 uM by LC/MS analysis; assay type: functional
[14] = species: Danio rerio; experiment: Effect on tryptophan metabolism in zebrafish embryo assessed as 3-HAA metabolite level at 10 uM by LC/MS analysis; assay type: functional
[15] = species: Danio rerio; experiment: Effect on tryptophan metabolism in zebrafish embryo assessed as 5-HTOL metabolite level at 10 uM by LC/MS analysis; assay type: functional
[16] = species: Danio rerio; experiment: Effect on tryptophan metabolism in zebrafish embryo assessed as indole metabolite level at 10 uM by LC/MS analysis; assay type: functional
[17] = species: Danio rerio; experiment: Effect on tryptophan metabolism in zebrafish embryo assessed as Xa metabolite level at 10 uM by LC/MS analysis; assay type: functional
[18] = species: Danio rerio; experiment: Effect on tryptophan metabolism in zebrafish embryo assessed as Trp metabolite level at 10 uM by LC/MS analysis; assay type: functional
[19] = species: Danio rerio; experiment: Induction of melanogenesis in zebrafish treated for 24 hrs by absorbance based assay (reference value: 98.2 to 100.3 %); assay type: functional
[20] = species: Danio rerio; experiment: Effect on tryptophan metabolism in zebrafish embryo assessed as NAS metabolite level at 10 uM by LC/MS analysis; assay type: functional
[21] = species: Danio rerio; experiment: Effect on tryptophan metabolism in zebrafish embryo assessed as skatole metabolite level at 10 uM by LC/MS analysis; assay type: functional
[22] = species: Danio rerio; experiment: Effect on tryptophan metabolism in zebrafish embryo assessed as AA metabolite level at 10 uM by LC/MS analysis; assay type: functional
[23] = Induction of melanogenesis in co-culture of HEK293 cells and mouse B16-F10 cells at 10 uM incubated for 48 hrs by Masson-Fontana staining based analysis relative to control; assay type: functional
[24] = species: Danio rerio; experiment: Effect on pyrimidine metabolism in zebrafish embryo at 10 uM by KEGG pathway-enrichment analysis; assay type: functional, organism-based
[25] = system: Mus musculus; experiment: In vivo agonist activity at PPL in skin of hydroquinone-induced vitiligo C57BL/6J mouse at 1.5 % administered topically for 20 days by immunofluorescence analysis; assay type: functional, organism-based; details: time 20.0 day
[26] = system: Mus musculus; experiment: Induction of melanogenesis in hydroquinone-induced vitiligo C57BL/6J mouse assessed as darker hair color administered topically for 20 days; assay type: functional, organism-based; details: route top, time 20.0 day
[27] = species: Danio rerio; experiment: Effect on histidine metabolism in zebrafish embryo at 10 uM by KEGG pathway-enrichment analysis; assay type: functional, organism-based
[28] = species: Danio rerio; experiment: Induction of melanogenesis in zebrafish at 40 uM treated for 24 hrs by absorbance based assay relative to control; assay type: functional
[29] = species: Danio rerio; experiment: Effect on cAMP content in zebrafish harboring PPL-/- at 10 uM by ELISA; assay type: functional, organism-based
[30] = species: Danio rerio; experiment: Effect on tryptophan metabolism in zebrafish embryo assessed as KYNA metabolite level at 10 uM by LC/MS analysis; assay type: functional
[31] = species: Danio rerio; experiment: Binding affinity to PPL in zebrafish at 10 uM by pull down assay; details: filed as agonist
[32] = species: Danio rerio; experiment: Induction of melanogenesis in wild-type zebrafish at 10 uM treated for 24 hrs by absorbance based assay; assay type: functional, organism-based
[33] = species: Danio rerio; experiment: Induction of melanogenesis in zebrafish harboring PPL-/- at 10 uM treated for 24 hrs by absorbance based assay; assay type: functional, organism-based
[34] = system: Danio rerio; experiment: In vivo agonist activity at PPL in zebrafish assessed as increase in Tyr mRNA level at 10 uM by ISH analysis; assay type: functional, organism-based
[35] = system: Danio rerio; experiment: In vivo agonist activity at PPL in zebrafish assessed as increase in mitfa mRNA level at 10 uM by ISH analysis; assay type: functional, organism-based
[36] = species: Danio rerio; experiment: Induction of melanogenesis in zebrafish at 10 uM treated for 24 hrs by absorbance based assay; assay type: functional, organism-based
[37] = species: Danio rerio; experiment: Induction of melanogenesis in zebrafish treated for 24 hrs by absorbance based assay; assay type: functional, organism-based
[38] = system: Mus musculus; experiment: Induction of melanogenesis in hydroquinone-induced vitiligo C57BL/6J mouse at 1.5 % administered topically for 20 days by Masson-Fontana staining based analysis; assay type: functional, organism-based; details: route top, time 20.0 day
[39] = species: Danio rerio; experiment: Binding affinity to PPL in zebrafish incubated for 10 mins by LiP-SMap analysis; details: filed as agonist
[40] = system: Danio rerio; experiment: In vivo agonist activity at PPL in zebrafish assessed as increase in cAMP content at 10 uM by ELISA; assay type: functional, organism-based
[41] = Induction of melanogenesis in co-culture of HEK293 cells transfected with PPL (unknown origin) and mouse B16-F10 cells at 10 uM incubated for 48 hrs by Masson-Fontana staining based analysis relative to control; assay type: functional
[42] = system: Danio rerio; experiment: In vivo agonist activity at PPL in zebrafish assessed as increase in Dct mRNA level at 10 uM by ISH analysis; assay type: functional, organism-based
[43] = species: Danio rerio; experiment: Effect on mitfa mRMA level in zebrafish harboring PPL-/- at 10 uM by qRT-PCR analysis; assay type: functional
[44] = system: Danio rerio; experiment: In vivo agonist activity at PPL in zebrafish assessed as increase in mitfa mRNA level at 10 uM by qRT-PCR analysis; assay type: functional, organism-based
[45] = species: Danio rerio; experiment: Effect on purine metabolism in zebrafish embryo at 10 uM by KEGG pathway-enrichment analysis; assay type: functional, organism-based

In the case of Cc1cc(-c2ccc([C@H](C)Nc3nccc(NS(=O)(=O)c4ccc([N+](=O)[O-])cc4)n3)cc2)ccc1F, the Activity [1] is reported as 17.69 nmol/kg, the Activity [2] is reported as 19.38 nmol/kg and the Activity [3] is reported as 93.63 nmol/kg. For the same compound, the Activity [4] was 105.98 nmol/kg, the Activity [5] was 22 nmol/kg and the Activity [6] was 38.27 nmol/kg. For the same compound, the Activity [7] was 54.62 nmol/kg, the Activity [8] was 32.11 nmol/kg and the Activity [9] was 55.63 nmol/kg. For the same compound, the Activity [10] was 2.84 nmol/kg, the Activity [11] was 2107.11 nmol/kg and the Activity [12] was 3.45 nmol/kg. It also gave an Activity [13] of 0.95 nmol/kg, an Activity [14] of 3.54 nmol/kg and an Activity [15] of 0.03 nmol/kg. The Activity [16] was 788.07 nmol/kg, the Activity [17] was 430.99 nmol/kg and the Activity [18] was 206300.5 nmol/kg. It also gave an Activity [19] of 108.21%, an Activity [20] of 0.06 nmol/kg and an Activity [21] of 582.83 nmol/kg. It also gave an Activity [22] of 14.25 nmol/kg.
Work on Cc1cc(-c2ccc([C@H](C)Nc3nccc(NS(=O)(=O)c4cccc([N+](=O)[O-])c4)n3)cc2)ccc1F yielded an Activity [1] of 16.28 nmol/kg, an Activity [2] of 20.08 nmol/kg and an Activity [23] of 107.32%. For the same compound, the Activity [3] was 81.53 nmol/kg, the Activity [24] was “Active” and the Activity [4] was 109.9 nmol/kg. The Activity [25] was “Active”, the Activity [26] was “Dose-dependent-effect” and the Activity [27] was “Active”. For the same compound, the Activity [5] was 21.8 nmol/kg, the Activity [6] was 24.76 nmol/kg and the Emax at 40 µM [28] was 197%. For the same compound, the Activity [7] was 41.08 nmol/kg, the Activity [29] was “No effect” and the Activity [30] was 8.23 nmol/kg. The Activity [8] was 41.42 nmol/kg, the Activity [9] was 76.93 nmol/kg and the Activity [31] was “Active”. The Activity [32] was “Active”, the Activity [33] was “inactive” and the Activity [10] was 1.2 nmol/kg. For the same compound, the Activity [11] was 2295.89 nmol/kg, the Activity [34] was “Active” and the Activity [35] was “Active”. The Activity [12] was 4.89 nmol/kg, the Activity [36] was “Active” and the Activity [37] was “Dose-dependent-effect”. For the same compound, the Activity [38] was “Active; Calcipotriene And Ruxolitinib Was Considerably Less Than The Compound At Concentration Of 1.5%”, the Activity [14] was 3.14 nmol/kg and the Activity [39] was “Active”. For the same compound, the Activity [15] was 0.03 nmol/kg, the Activity [16] was 635.89 nmol/kg and the Activity [17] was 399.41 nmol/kg. The Activity [40] was “Active”, the Activity [41] was 137.24% and the Activity [42] was “Active”. The Activity [18] was 203749.8 nmol/kg, the Activity [43] was “No effect” and the Activity [19] was 171.43%. For the same compound, the Activity [20] was 0.07 nmol/kg, the Activity [44] was “Active” and the Activity [21] was 527.99 nmol/kg. The Activity [45] was “Active” and the Activity [22] was 15.09 nmol/kg.
